Data as given in PMC10626578, “Designed switch from covalent to non-covalent inhibitors of carboxylesterase Notum activity” (European Journal of Medicinal Chemistry, 2023).
In brackets after ≈: the same amount, converted by molar mass.

Tested on: not listed separately
Test: Stability in mouse liver microsomes
Assay type: in vitro ADME
Settings: not given
Procedure: (§1) Selected compounds were routinely screened for aqueous solubility in PBS (pH 7.4), transit performance in MDCK-MDR1 cell lines for permeability, and metabolic stability in MLM and HLM as a measure of clearance. The main metabolites and routes of metabolism of 4y were determined in MLM. Assay protocols and additional data are presented in the Supplementary Material (Tables S1–S7). ADME studies reported in this work were performed by WuXi AppTec (Shanghai, China).
(§2) Representative assay protocols have been described in detail. ^1,2

Row | MLM Stability Cli | SMILES
1 | 620 µL/min/mg protein | CC(=O)N1CC2(CC2)c2cc(Cl)ccc21 [Compound 4z, 1-(5′-Chlorospiro[cyclopropane-1,3′-indolin]-1′-yl)ethan-1-one]
2 | 200 µL/min/mg protein | CS(=O)(=O)N1CC2(CC2)c2c(Cl)cccc21 [Compound 5b, 4′-Chloro-1'-(methylsulfonyl)spiro[cyclopropane-1,3′-indoline]]
3 | 1320 µL/min/mg protein | CC(=O)n1ccc2c(Cl)c(Cl)ccc21 [Compound 5d, 1-(4,5-Dichloro-1H-indol-1-yl)ethan-1-one]
4 | 73 µL/min/mg protein | O=C1CCC2Cc3ccccc3N12 (stereo not shown) [Compound 5f, 1,2,9,9a-Tetrahydro-3H-pyrrolo[1,2-a]indol-3-one]

Same assay, conditions: mouse, read-out: MLM Stability t1/2

Row | half-life | half-life at 1 h | SMILES
5 | 2.2 min |  | CC(=O)N1CC2(CC2)c2cc(Cl)ccc21 [Compound 4z, 1-(5′-Chlorospiro[cyclopropane-1,3′-indolin]-1′-yl)ethan-1-one]
6 | 7 min |  | CS(=O)(=O)N1CC2(CC2)c2c(Cl)cccc21 [Compound 5b, 4′-Chloro-1'-(methylsulfonyl)spiro[cyclopropane-1,3′-indoline]]
7 | 1.1 min |  | CC(=O)n1ccc2c(Cl)c(Cl)ccc21 [Compound 5d, 1-(4,5-Dichloro-1H-indol-1-yl)ethan-1-one]
8 | 19 min | 18 min | O=C1CCC2Cc3ccccc3N12 (stereo not shown) [Compound 5f, 1,2,9,9a-Tetrahydro-3H-pyrrolo[1,2-a]indol-3-one]
9 |  | 16 min | O=C1N2c3ccccc3CC2CC1(F)F (stereo not shown) [Compound 5m, 2,2-Difluoro-1,2,9,9a-tetrahydro-3H-pyrrolo[1,2-a]indol-3-one]

Tested on: not listed separately
Test: Aqueous solubility in PBS (pH 7.4)
Assay type: physicochemical
Settings: PBS; Table S2; pH 7.4; n = 2; * below lower limit of quantification; read-out: Thermodynamic Solubility @ RT
Procedure: as §1, §2

Row | solubility thermodynamic | SMILES
10 | < 0.00036 mg/mL | CC(=O)n1ccc2c(Cl)c(Cl)ccc21 [Compound 5d, 1-(4,5-Dichloro-1H-indol-1-yl)ethan-1-one]
11 | 0.577 mg/mL (≈ 3.33 mM) | O=C1CCC2Cc3ccccc3N12 (stereo not shown) [Compound 5f, 1,2,9,9a-Tetrahydro-3H-pyrrolo[1,2-a]indol-3-one]

Target: T1, Notum (core, 81–451C330S) (Homo sapiens, UniProt Q6P988, C330S)
T1 construct: high-throughput biochemical assay with Notum (81–451C330S) and OPTS as a synthetic fluorescent substrate; made in house
T1 sequence (Q6P988 81-451 C330S): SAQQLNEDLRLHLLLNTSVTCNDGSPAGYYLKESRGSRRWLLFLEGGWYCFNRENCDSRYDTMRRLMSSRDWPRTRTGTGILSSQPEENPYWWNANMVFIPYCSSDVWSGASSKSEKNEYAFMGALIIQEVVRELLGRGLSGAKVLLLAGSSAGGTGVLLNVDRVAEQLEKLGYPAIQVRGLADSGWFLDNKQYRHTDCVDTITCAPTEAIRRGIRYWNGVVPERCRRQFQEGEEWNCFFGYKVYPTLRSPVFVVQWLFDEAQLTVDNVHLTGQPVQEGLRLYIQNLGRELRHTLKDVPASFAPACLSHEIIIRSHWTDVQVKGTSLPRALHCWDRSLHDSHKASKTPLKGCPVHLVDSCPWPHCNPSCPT
Test: Notum-OPTS biochemical assay, Notum (81–451C330S)
Settings: Table 2; mean ± s.d. of n = 4–12; >10 = 20–50% inhibition @ 10 μM; read-out: Notum IC50
Procedure: Notum inhibitors 3–5 (Table 1, Table 2, Table 3, Table 4) were either purchased or prepared using established synthetic methods from readily available starting materials (Scheme 1). Where necessary, the synthesis of many of these amines (e.g. 6) have been reported previously and full details of their preparation have been included in the Experimental Section. Notum inhibition activity was determined using the standard Notum-OPTS biochemical assay using IC50 values. These values were used to compare relative activities with covalent inhibitors under carefully regulated assay conditions. […] Selected inhibitors were screened for inhibition of Notum activity in a TCF/LEF Reporter (Luciferase) cell line with exogenous WNT3a and Notum, and soaked into Notum crystals to determine their binding modes and evidence of MoA.
Methods have been described in detail.

Row | IC50 | SMILES
12 | > 10 µM | CC(=O)N1CCc2cc(C#N)ccc21 [Compound 4r, 1-Acetylindoline-5-carbonitrile]
13 | 0.35 ± 0.04 µM | CC(=O)N1CCc2cc(F)ccc21 [Compound 4s, 1-(5-Fluoroindolin-1-yl)ethan-1-one]
14 | 0.034 ± 0.01 µM | CC(=O)N1CC2(CC2)c2cc(Cl)ccc21 [Compound 4z, 1-(5′-Chlorospiro[cyclopropane-1,3′-indolin]-1′-yl)ethan-1-one]

Same assay, conditions: Table 4; mean ± s.d. of n = 4–8; >10 = 20–50% inhibition @ 10 μM; read-out: Notum IC50

Row | IC50 | SMILES
15 | 1 ± 0.3 µM | CS(=O)(=O)N1CC2(CC2)c2c(Cl)cccc21 [Compound 5b, 4′-Chloro-1'-(methylsulfonyl)spiro[cyclopropane-1,3′-indoline]]
16 | 0.031 ± 0.004 µM | CC(=O)n1ccc2c(Cl)c(Cl)ccc21 [Compound 5d, 1-(4,5-Dichloro-1H-indol-1-yl)ethan-1-one]
17 | 0.18 ± 0.02 µM | O=C1CCC2Cc3ccccc3N12 (stereo not shown) [Compound 5f, 1,2,9,9a-Tetrahydro-3H-pyrrolo[1,2-a]indol-3-one]

Same assay, conditions: vs 3a; more potent

Row | fold increase in Notum inhibition over 3a | SMILES
18 | 2 fold | O=C1CCC2Cc3ccccc3N12 (stereo not shown) [Compound 5f, 1,2,9,9a-Tetrahydro-3H-pyrrolo[1,2-a]indol-3-one]
